Experimental data as given in US6541480B2, “1-aryl-1,8-naphthylidin-4-one derivative as type IV phosphodiesterase inhibitor” (Suntory Limited, priority 1997, dated 2003).
Structures can show the parent of a compound that is named as a salt.

Key:
[1] = system: type IV phosphodiesterase; assay: Type IV phosphodiesterase inhibiting activity (3H-cAMP hydrolysis, PDE IV fraction from U937 cells); format: biochemical; details: PDE IV fraction from human U937 cells, 30° C., 30 minutes
Procedure: (1) Method of Measurement of Type IV Phosphodiesterase Inhibiting Activity
The following assay was used to evaluate the ability of the compound of the present invention to suppress type IV phosphodiesterase, according to Biochemical.
1) Type IV phosphodiesterase activity fractions were prepared as follows. Human histiocytic lymphoma cell line U937 was cultured in an RPMI1640 medium containing 10% fetal calf serum to obtain 10^9 cells of U937. The cells were recovered by centrifugation and suspended in 40 ml of buffer A (20 mM bis-tris, 5 mM 2-mercaptoethanol, 2 mM benzamidine, 2 mM EDTA, 0.1 mM 4-(2-aminoethyl)benzensulfonyl hydrochloride, 50 mM sodium acetate, pH=6.5). The cells were broken by a sonication and centrifuged (4° C., 10,000G, 10 minutes) to obtain a supernatent. This was filtered by a 0.45 μm filter to obtain the soluble fraction.
The soluble fraction obtained was applied into a 1×10 cm DEAE Sepharose column equalibrated with the buffer A. 120 ml of the buffer A containing a linear gradient solution of 0.05 to 1 M sodium acetate was used to separate the phosphodiesterase and recover 24 5-ml fractions. Each of the fractions was measured for the cAMP phosphodiesterase activity.
2) The test compound was reacted at a desired concentration in a reaction mixture containing 20 mM tris-HCl (pH 7.5), 1 mM MgCl2, 100 μM EDTA, 330 μg/ml calf serum albumin, 10 μg/ml 5′-nucleotidase, 0.4 μCi ^3H-cAMP ([…] cAMP) and the type IV phosphodiesterase stored solution at 30° C. for 30 minutes. QAE-Sephadex suspended in 10 mM of hepes-Na (pH-7.0) was added to the reaction mixture which was then allowed to stand for 5 minutes, then the supernatant was obtained, QAE-Sephadex was further added, to the supernatant, and was allowed to stand for 5 minutes, then the supernatant was obtained and measured for radioactivity.

[2] = 28-day repeated administration toxicity in mice; format: in vivo; details: 10 mg/kg per day administered for 28 days to mice
[3] = system: TNF-α production by LPS stimulated mouse peritoneal macrophages; assay: TNF-α production inhibitory activity by LPS stimulated macrophages (ELISA); format: cell-based; details: LPS 10 μg/ml, 8 hours
Procedure: (1) Method of Measurement of TNF-α Production Inhibitory Activity by LPS Stimulated Macrophages
The following assay was used to evaluate the ability of the compound of the present invention to suppress TNF-α production by LPS stimulated macrophages according to Immuno pharmacol. 29, 121-127 (1995).
1) 6 to 10 week old female BALB/c mice were used, 2 ml portions of thioglycolate were intraperitoneally administered, and the abdominal cavities were washed by 10 ml of PBS after 4 days, whereby 1 to 2×10^7 peritoneal cells were obtained per mouse. These were suspended in a hemocyte solution (0.75% ammonium chloride, 17 mM tris-hydrochlorate buffer, pH7.2), centrifuged, then resuspended in an RPMI1640 medium including 10% fetal calf serum and seeded in a 96-well cell culture plate at a density of 1×10^5 cells/50 μl/well. Since these cells adhered strongly to the tissue culture plate and were positive in nonspecific esterase staining, they were used for the test as mouse peritoneal macrophages. Mouse peritoneal macrophages were precultured overnight at 37° C. in 5% CO2 for the experiment.
2) E. Coli (serum type 055:B5) derived LPS was dissolved in PBS in a concentration of 1 mg/ml, then sterilized by filtration. The test compound was dissolved in DMSO to make a 1000-fold concentration solution of the final concentration of use. 10 μl of the above LPS stock solution (final concentration 10 μg/ml) and 1 μl of the tested substance stock solution were added and mixed in 0.5 ml of RPMI1640 medium containing 10% fetal calf serum. This was added to the above cells at 50 μl/well and cultured for 8 hours. The cultured supernatant was recovered from each well and the TNF-α concentration was measured by the ELISA method (Cytoscreen® Immunoassay Kit Mouse TNF-α, BioSource International).

O=C(Nc1c(Cl)cccc1Cl)c1cn(-c2ccc(F)cc2)c2ncccc2c1=O [Example 99, N-(2,6-Dichlorophenyl)-1-(4-fluorophenyl)-1,4-dihydro[1,8]naphthylidin-4-one-3-carboxamide]
IC50 [1]: 3.4 nM | death [2]: no death | IC50 ([3]; Peritoneal macrophage): 25 nM

O=C(Nc1cccnc1)c1cn(-c2ccc(F)cc2)c2ncccc2c1=O [Example 102, 1-(4-Fluorophenyl)-N-(3-pyridyl)-1,4-dihydro[1,8]naphthylidin-4-one-3-carboxamide]
IC50 [1]: 35 nM | death [2]: no death | IC50 ([3]; Peritoneal macrophage): 100 nM

O=C(Nc1ccncc1)c1cn(-c2ccc(F)cc2)c2ncccc2c1=O [Example 103, 1-(4-Fluorophenyl)-N-(4-pyridyl)-1,4-dihydro[1,8]naphthylidin-4-one-3-carboxamide]
IC50 [1]: 59 nM | death [2]: no death | IC50 ([3]; Peritoneal macrophage): 100 nM

O=C(Nc1c(Cl)cncc1Cl)c1cn(-c2ccc(F)cc2)c2ncccc2c1=O [Example 106, N-(3,5-Dichloropyridin-4-yl)-1-(4-fluorophenyl)-1,4-dihydro[1,8]naphthylidin-4-one-3-carboxamide]
IC50 [1]: 0.4 nM | death [2]: no death | IC50 [3]: 10 nM

O=C(NCCc1ccncc1)c1cn(-c2ccccc2)c2ncccc2c1=O [Example 119, 1-Phenyl-N-[2-(4-pyridyl)ethyl]-1,4-dihydro[1,8]naphthylidin-4-one-3-carboxamide]
IC50 [1]: 250 nM | IC50 [3]: 700 nM

COc1ccc(-n2cc(C(=O)Nc3ccncc3)c(=O)c3cccnc32)cc1 [Example 122, 1-(4-Methoxyphenyl)-N-(4-pyridyl)-1,4-dihydro[1,8]naphthylidin-4-one-3-carboxamide]
IC50 [1]: 58 nM | IC50 ([3]; Peritoneal macrophage): 1 nM

O=C(Nc1c(Cl)cncc1Cl)c1cn(-c2ccc(Cl)cc2)c2ncccc2c1=O [Example 125, 1-(4-Chlorophenyl)-N-(3,5-dichloropyridin-4-yl)-1,4-dihydro[1,8]naphthylidin-4-one-3-carboxamide]
IC50 [1]: 0.8 nM | IC50 ([3]; Peritoneal macrophage): 0.5 nM

O=C(Nc1ccncc1)c1cn(-c2cccc(CO)c2)c2ncccc2c1=O [Example 127, 1-(3-Hydroxymethylphenyl)-N-(4-pyridyl)-1,4-dihydro[1,8]naphthylidin-4-one-3-carboxamide]
IC50 [1]: 56 nM | IC50 ([3]; Peritoneal macrophage): 300 nM

O=C(Nc1ccncc1)c1cn(-c2ccccn2)c2ncccc2c1=O [Example 132, N-(4-Pyridyl)-1-(2-pyridyl)-1,4-dihydro[1,8]naphthylidin-4-one-3-carboxamide]
IC50 [1]: 760 nM | IC50 ([3]; Peritoneal macrophage): 1000 nM

O=C(Nc1c(Cl)cncc1Cl)c1cn(-c2ccccn2)c2ncccc2c1=O [Example 133]
IC50 [1]: 6.4 nM | IC50 [3]: 4 nM

O=C(Nc1cccnc1)c1cn(-c2cccnc2)c2ncccc2c1=O [Example 134, 1,N-bis-(3-Pyridyl)-1,4-dihydro[1,8]naphthylidin-4-one-3-carboxamide]
IC50 [1]: 470 nM | IC50 ([3]; Peritoneal macrophage): 800 nM

O=C(Nc1ccncc1)c1cn(-c2cccnc2)c2ncccc2c1=O [Example 135, 1-(3-Pyridyl)-N-(4-pyridyl)-1,4-dihydro[1,8]naphthylidin-4-one-3-carboxamide]
IC50 [1]: 130 nM | IC50 ([3]; Peritoneal macrophage): 500 nM

O=C(Nc1c(Cl)cncc1Cl)c1cn(-c2cccnc2)c2ncccc2c1=O [Example 136, N-(3,5-Dichloropyridin-4-yl)-1-(3-pyridyl)-1,4-dihydro[1,8]naphthylidin-4-one-3-carboxamide]
IC50 [1]: 0.8 nM | IC50 [3]: 3 nM

O=C(Nc1c(Cl)cccc1Cl)c1cn(-c2ccncc2)c2ncccc2c1=O [Example 137, N-(2,6-Dichlorophenyl)-1-(4-pyridyl)-1,4-dihydro[1,8]naphthylidin-4-one-3-carboxamide]
IC50 [1]: 4.9 nM | IC50 ([3]; Peritoneal macrophage): 4 nM

O=C(Nc1cccnc1)c1cn(-c2ccncc2)c2ncccc2c1=O [Example 138, N-(3-Pyridyl)-1-(4-pyridyl)-1,4-dihydro[1,8]naphthylidin-4-one-3-carboxamide]
IC50 [1]: 44 nM | IC50 ([3]; Peritoneal macrophage): 400 nM

O=C(Nc1ccncc1)c1cn(-c2ccncc2)c2ncccc2c1=O [Example 139, 1,N-bis-(4-Pyridyl)-1,4-dihydro[1,8]naphthylidin-4-one-3-carboxamide]
IC50 [1]: 70 nM | death [2]: no death | IC50 ([3]; Peritoneal macrophage): 100 nM

Cc1cnccc1NC(=O)c1cn(-c2ccncc2)c2ncccc2c1=O [Example 140, N-(3-Methylpyridin-4-yl)-1-(4-pyridyl)-1,4-dihydro[1,8]naphthylidin-4-one-3-carboxamide]
IC50 [1]: 36 nM | IC50 [3]: 5 nM

O=C(Nc1c(Cl)cncc1Cl)c1cn(-c2ccncc2)c2ncccc2c1=O [Example 141, N-(3,5-Dichloropyridin-4-yl)-1-(4-pyridyl)-1,4-dihydro[1,8]naphthylidin-4-one-3-carboxamide]
IC50 [1]: 0.5 nM | death [2]: no death | IC50 ([3]; Peritoneal macrophage): 1 nM

Nc1ccc(-n2cc(C(=O)Nc3ccncc3)c(=O)c3cccnc32)cn1 [Example 143, 1-(2-Aminopyridin-5-yl)-N-(4-pyridyl)-1,4-dihydro[1,8]naphthylidin-4-one-3-carboxamide hydrochloride]
IC50 [1]: 140 nM | IC50 ([3]; Peritoneal macrophage): 150 nM

O=C(Nc1ccncc1)c1cn(-c2ccc(OCc3ccccc3)nc2)c2ncccc2c1=O [Example 144, 1-(2-Benzyloxypyridin-5-yl)-N-(4-pyridyl)-1,4-dihydro[1,8]naphthylidin-4-one-3-carboxamide]
IC50 [1]: 140 nM | IC50 ([3]; Peritoneal macrophage): 700 nM

O=C(Nc1c(Cl)cncc1Cl)c1cn(-c2ccc(OCc3ccccc3)nc2)c2ncccc2c1=O [Example 146, 1-(2-Benzyloxypyridin-5-yl)-N-(3,5-dichloropyridin-4-yl)-1,4-dihydro[1,8]naphthylidin-4-one-3-carboxamide]
IC50 [1]: 1.7 nM | IC50 ([3]; Peritoneal macrophage): 10 nM

O=C(Nc1c(Cl)cncc1Cl)c1cn(-c2ccc(O)nc2)c2ncccc2c1=O [Example 147, N-(3,5-Dichloropyridin-4-yl)-1-(2-hydroxypyridin-5-yl)-1,4-dihydro[1,8]naphthylidin-4-one-3-carboxamide]
IC50 [1]: 1.1 nM | IC50 ([3]; Peritoneal macrophage): 20 nM

O=C(Nc1c(Cl)cncc1Cl)c1cn(-c2nccs2)c2ncccc2c1=O [Example 152, N-(3,5-Dichloropyridin-4-yl)-1-(2-thiazolyl)-1,4-dihydro[1,8]naphthylidin-4-one-3-carboxamide]
IC50 [1]: 5.9 nM | IC50 ([3]; Peritoneal macrophage): 30 nM
